Data on 60 compounds can be found in ChEMBL document CHEMBL5674850, “ASAP - Solubility” (2024).

Values after ≈ are worked out from the molar mass of the structure shown. Values joined by “and” are separate entries in the source; they are usually repeats but may differ in a detail not shown here. Equal entries are not always repeated.

One data set can be described thus: Kinetic solubility of compound by measuring concentration at pH 7.4 in saturated PBS buffer by UV LCMS/MS using calibration curves. The assay has been performed by Enamine biological services, Bienta Ltd.The protocol is publicly available: dx.doi.org/10.17504/protocols.io.j8nlk8y41l5r/v1. Format: physicochemical. The note with it: PBS buffer.
In general, kinetic solubility refers to the concentration staying in solution when a stock, usually in DMSO, is diluted into the medium. As for `CCCC[C@@H](NC(=O)OC(C)(C)C)C(=O)N[C@@H](C(=O)NCc1ccc(CN)cc1)c1ccc(OCc2ccccc2)cc1`, the solubility (kinetic) turned out to be 143 µM (≈ 84.2 µg/mL).

Consider `O=C(O)c1cc(Cl)ccc1S(=O)(=O)NC1CCN(c2nc(C3CC3)cc(C(F)(F)F)n2)CC1`, for which the kinetic solubility came to 380 µM (≈ 192 µg/mL).

As to `O=C(Nc1ccc2c(c1)CNC2)c1cc(Cl)cc2ccncc12`, the kinetic solubility turned out to be 181 µM (≈ 58.6 µg/mL).

Turning to `O=C(Nc1ccc2c(c1)CNC2)c1cc(Br)cc2[nH]c(-c3ccccc3)nc12`, the solubility (kinetic) was at most 2 µM.

`NCc1cccc(NC(=O)c2cccn3cc(CN4CCCC4)nc23)c1` registered a solubility (kinetic) of 332 µM (≈ 116 µg/mL).

Turning to `O=C(Nc1cc2c(c(C3=CCOCC3)c1)CNC2)c1cc(F)cc2[nH]ncc12`, the solubility (kinetic) was found to be 157 µM (≈ 59.4 µg/mL).

For `O=C(Nc1cc(Cl)cc(C(=O)Nc2cccc(C3CCNCC3)c2)c1)OCc1ccccc1`, the solubility (kinetic) was 126 µM (≈ 58.5 µg/mL).

In the case of `O=C(Nc1cc(Cl)cc(C(=O)Nc2cccc(-c3nnn[nH]3)c2)c1)OCc1ccccc1`, the kinetic solubility came to 65 µM (≈ 29.2 µg/mL).

`NCc1cccc(NC(=O)CN(C(=O)OCc2ccccc2)c2ccc(OCc3ccccc3)cc2)c1` returned a solubility (kinetic) of 56 µM (≈ 27.8 µg/mL).

`CCOc1cccc(-c2ccc(S(=O)(=O)Nc3ccc(Cl)cc3C(=O)O)cc2)c1` showed a kinetic solubility of 392 µM (≈ 169 µg/mL).

For the compound `O=C(Nc1ccc2c(c1)CNC2)c1ccc2[nH]cc(C3CCNCC3)c2c1`, the kinetic solubility came out at 377 µM (≈ 136 µg/mL). The solubility kinetic values of the last two compounds are within 1.5-fold of each other.

Compound `COCc1cc(Cl)cc([C@H](Nc2ccc3c(c2)CNC3)C(=O)NCC(F)F)c1` had a solubility (kinetic) of 192 µM (≈ 78.7 µg/mL).

`c1ccc2sc(C3CCN(Cc4c[nH]c5ccccc45)CC3)nc2c1` came in with a solubility (kinetic) of 119 µM (≈ 41.4 µg/mL).

`CC(C)CNC(=O)c1cc(Cl)c(F)cc1NS(=O)(=O)c1ccc(Oc2ccccc2Cl)cc1` came in with a solubility (kinetic) of 4 µM (≈ 2.05 µg/mL). This solubility kinetic lies about 30-fold lower than the previous one.

For the compound `O=C(NCC(F)F)[C@H](Nc1ccc2c(c1)CNC2)c1cc(Cl)cc2ccoc12`, the kinetic solubility turned out to be 187 µM (≈ 75.9 µg/mL).

Compound `O=C(NCC(F)F)[C@H](Nc1cc2c(cc1Br)CNC2)c1cc(Cl)cc(C2CC2)c1` gave a kinetic solubility of 333 µM (≈ 161 µg/mL).

Turning to `O=C(Nc1cc(Cl)cc(C(=O)Nc2cccc(-n3nn[nH]c3=O)c2)c1)OCc1ccccc1`, the kinetic solubility was 107 µM (≈ 49.7 µg/mL).

For the compound `O=C(N[C@H]1[C@H]2CCCCC[C@H]2[C@H]1C(=O)Nc1cccc(C2CCNCC2)c1)OCc1ccccc1`, the solubility (kinetic) stood at 49 µM (≈ 23.3 µg/mL).

`O=C(O)c1cc(Cl)ccc1NS(=O)(=O)c1ccc(-c2ccccc2Cl)cc1` showed a kinetic solubility of 397 µM (≈ 168 µg/mL). Against the preceding compound, the solubility kinetic is about 8.1-fold higher.

`CNC(=O)[C@H](Nc1cc(Cl)cc(NC(=O)OCc2ccccc2)c1)c1cccc(-c2nn[nH]n2)c1` displayed a solubility (kinetic) of 333 µM (≈ 164 µg/mL).

`Cc1cc([C@H](Nc2ccc3c(c2)CNC3)C(=O)NCC(F)F)cc(C(F)(F)F)c1` displayed a solubility (kinetic) of at least 400 µM.

`O=C(Nc1ccc2c(c1)CNC2)c1cc(Cl)cc2c1cnn2C1CCC1` returned a solubility (kinetic) of 172 µM (≈ 63.1 µg/mL).

For `O=C(Nc1ccc2c(c1)CNC2)c1cc(F)cc(-c2cn[nH]c2)c1`, the kinetic solubility stood at 185 µM (≈ 59.6 µg/mL).

Compound `O=C(O)Cn1ncc2cc(-c3cc(Cl)cc(NC(=O)OCc4ccccc4)c3)ccc21` returned a kinetic solubility of 131 µM (≈ 57.1 µg/mL). The solubility kinetic values of the last two compounds are within 1.5-fold of each other.

In turn, `O=C(Nc1cc2c(cc1C1CC1)CNC2)c1cc(F)cc2[nH]ncc12` displayed a solubility (kinetic) of 189 µM (≈ 63.6 µg/mL). The solubility kinetic values of the last two compounds are within 1.5-fold of each other.

As to `COCCNC(=O)[C@H](Nc1ccc2c(c1)CNC2)c1cc(Cl)cc(C2CC2)c1`, the solubility (kinetic) is 320 µM (≈ 128 µg/mL).

On to `Cn1ncc2c(C(=O)Nc3ccc4c(c3)CNC4)cc(Cl)cc21`, for which the kinetic solubility is at least 400 µM.

Take `O=C(NCC(F)F)[C@H](Nc1cnc2c(c1)CNC2)c1cc(Cl)cc(C2CC2)c1`: the kinetic solubility amounted to 362 µM (≈ 147 µg/mL).

In the case of `NCc1cccc([C@@H]2C[C@H]2c2cc(Cl)cc(NC(=O)OCc3ccccc3)c2)c1`, the solubility (kinetic) was 50 µM (≈ 20.3 µg/mL).

The compound `O=C(Nc1cc2c(c(C3=CCS(=O)(=O)CC3)c1)CNC2)c1cc(F)cc2[nH]ncc12` yielded a kinetic solubility of 141 µM (≈ 60.1 µg/mL).

The compound `CC(C)n1cc2c(C(=O)Nc3ccc4c(c3)CNC4)cc(Cl)cc2n1` had a solubility (kinetic) of 181 µM (≈ 64.2 µg/mL).

`NCCc1ccc(NC(=O)c2cc(Cl)cc(NC(=O)OCc3ccccc3)c2)cc1` came in with a solubility (kinetic) of 88 µM (≈ 37.3 µg/mL).

On to `CCc1cc(C(=O)Nc2cccc(CN)c2)sc1-c1ccc(Cl)cc1`, for which the solubility (kinetic) turned out to be 7 µM (≈ 2.6 µg/mL).

`O=C(O)c1cc(Cl)c(F)cc1S(=O)(=O)Nc1ccc(Oc2ccccc2Cl)cc1` came in with a solubility (kinetic) of 396 µM (≈ 181 µg/mL).

As to `O=C(O)c1cc(Cl)ccc1NS(=O)(=O)c1ccc(Oc2ccccc2Cl)cc1`, the solubility (kinetic) was determined as 369 µM (≈ 162 µg/mL).

As to `N#CCCNC(=O)[C@H](Nc1ccc2c(c1)CNC2)c1cc(Cl)cc(C2CC2)c1`, the solubility (kinetic) was determined as 374 µM (≈ 148 µg/mL).

In turn, `O=C1Cc2cc(C(=O)Nc3ccc4c(c3)CNC4)ccc2N1` yielded a kinetic solubility of 136 µM (≈ 39.9 µg/mL).

Regarding `NCc1cccc(NC(=O)c2cc(Cl)cc(CN)c2)c1`, the kinetic solubility stood at 375 µM (≈ 109 µg/mL).

`NCc1cccc(CNC(=O)[C@@H](NC(=O)OCc2ccccc2)c2ccc(OCc3ccccc3)cc2)c1` gave a kinetic solubility of 78 µM (≈ 39.7 µg/mL).

As to `CNC(=O)c1cc(Br)cc([C@H](Nc2ccc3c(c2)CNC3)C(=O)NCC(F)F)c1`, the kinetic solubility was at least 400 µM.

`COc1cc(Cc2c(-c3ccc(F)cc3)noc2C)nc(N2CCNCC2)n1` registered a solubility (kinetic) of 325 µM (≈ 125 µg/mL).

In turn, `CSc1cc2c(cc1NC(=O)c1cc(F)cc3[nH]ncc13)CNC2` registered a solubility (kinetic) of 392 µM (≈ 134 µg/mL).

`COc1cc(-c2cc(NC(=O)c3cc(F)cc4[nH]ncc34)cc3c2CNC3)ccn1` yielded a solubility (kinetic) of 180 µM (≈ 72.6 µg/mL).

Compound `NCc1cccc(NC(=O)c2cc(OCc3ccccc3)ccc2CNC(=O)OCc2ccccc2)c1` came in with a kinetic solubility of 14 µM (≈ 6.94 µg/mL).

For the compound `O=C(Nc1ccc2c(c1)CNC2)c1cc(Cl)cc2cn[nH]c12`, the solubility (kinetic) was 184 µM (≈ 57.5 µg/mL). This solubility kinetic lies about 13-fold higher than the previous one.

`O=C(Nc1cc(Br)c2c(c1)CNC2)c1cc(F)cc2[nH]ncc12` gave a solubility (kinetic) of 4 µM (≈ 1.5 µg/mL).

In turn, `O=C(/C=C/c1ccccc1)C(=O)N1CCN(CCc2ccccc2)CC1` gave a kinetic solubility of 239 µM (≈ 83.3 µg/mL). Against the preceding compound, the solubility kinetic is about 60-fold higher.

Consider `CC[C@@H](Cc1nnn[nH]1)c1ccc(NC(=O)c2cc(Cl)cc(NC(=O)OCc3ccccc3)c2)cc1`, for which the kinetic solubility was 60 µM (≈ 30.3 µg/mL). This solubility kinetic is about 4-fold lower than that of the compound before.

Regarding `CN(c1ccc2c(c1)CNC2)[C@H](C(=O)NCC(F)F)c1cc(Cl)cc(C2CC2)c1`, the solubility (kinetic) is 172 µM (≈ 72.2 µg/mL).

Take `O=C(Nc1cc(Cl)cc(C(=O)Nc2ccc3c(c2)CNC3)c1)OCc1ccccc1`: the solubility (kinetic) came to 35 µM (≈ 14.8 µg/mL).

As to `CNC(=O)[C@H](Nc1cc(CN)cc(C(=O)O)c1)c1cc(Cl)cc(C2CC2)c1`, the kinetic solubility was found to be 335 µM (≈ 130 µg/mL).

The compound `Cc1c(C(=O)Nc2cc(-c3cccnc3)ccn2)cc(C2CC2)n1C` displayed a kinetic solubility of 176 µM (≈ 58.5 µg/mL).

`CNC(=O)[C@H](Nc1ccc2c(c1)CNC2)c1cc(Cl)cc(C2CC2)c1` returned a kinetic solubility of 358 µM (≈ 127 µg/mL).

Regarding `O=C(NCC(F)F)[C@H](Nc1ccc2c(c1)CNC2)c1cc(Cl)cc2c1CCC2`, the kinetic solubility was at least 400 µM.

With `CO[C@H]1C[C@H](n2ncc3c(C(=O)Nc4ccc5c(c4)CNC5)cc(Cl)cc32)C1`, the solubility (kinetic) was found to be 340 µM (≈ 135 µg/mL).

`Cn1cc2c(C(=O)Nc3ccc4c(c3)CNC4)cc(F)cc2n1` displayed a solubility (kinetic) of 309 µM (≈ 95.9 µg/mL).

As to `Cc1cc(-c2ccc([C@@H](NC(=O)OCc3ccccc3)C(=O)Nc3cccc(CN)c3)cc2)cs1`, the solubility (kinetic) is 8 µM (≈ 3.88 µg/mL). Against the preceding compound, the solubility kinetic is about 39-fold lower.

In turn, `N#C[C@H](Nc1cccc(-c2nn[nH]n2)c1)c1cc(Cl)cc(NC(=O)OCc2ccccc2)c1` registered a solubility (kinetic) of 344 µM (≈ 158 µg/mL).

`O=C(NCCCF)[C@H](Nc1ccc2c(c1)CNC2)c1cc(Cl)cc(C2CC2)c1` displayed a kinetic solubility of 394 µM (≈ 158 µg/mL).

Staying with this data set, now noted: buffer.
`O=C(Nc1ccc2c(c1)CNC2)c1cc(F)cc(-c2cn[nH]c2)c1`: the “Solubility (mean)” value was 184 µM (≈ 59.3 µg/mL).

Take `O=C(NCC(F)F)[C@H](Nc1ccc2c(c1)CNC2)c1cc(Cl)cc(C2CC2)c1`: the “Solubility (mean)” value was 367 µM and 326 µM.

Still in this data set, the particulars now being: buffer, ph 7.5.
Take `O=C(NCC(F)F)[C@H](Nc1ccc2c(c1)CNC2)c1cc(Cl)cc(C2CC2)c1`: the “Solubility (mean)” value was 139 µM (≈ 56.4 µg/mL).
